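Five concentrations, 48 hours, 96-well plates. At the GI50, growth is halved. TGI: total growth inhibition.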
Columns and labels:
Assay in all cases: growth of human tumour cells (NCI), 48 h
786-0 renal = system: 786-0 renal
A498 renal = system: A498 renal
A549 NSCLC = system: A549 NSCLC
ACHN renal = system: ACHN renal
BT-549 breast = system: BT-549 breast
CAKI-1 renal = system: CAKI-1 renal
CCRF-CEM leukemia = system: CCRF-CEM leukemia
COLO 205 colon = system: COLO 205 colon
DU-145 prostate = system: DU-145 prostate
EKVX NSCLC = system: EKVX NSCLC
HCC-2998 colon = system: HCC-2998 colon
HCT-116 colon = system: HCT-116 colon
HCT-15 colon = system: HCT-15 colon
HL-60(TB) leukemia = system: HL-60(TB) leukemia
HOP-62 NSCLC = system: HOP-62 NSCLC
HOP-92 NSCLC = system: HOP-92 NSCLC
HS 578T breast = system: HS 578T breast
HT29 colon = system: HT29 colon
IGROV1 ovarian = system: IGROV1 ovarian
K-562 leukemia = system: K-562 leukemia
KM12 colon = system: KM12 colon
LOX IMVI melanoma = system: LOX IMVI melanoma
M14 melanoma = system: M14 melanoma
MALME-3M melanoma = system: MALME-3M melanoma
MCF7 breast = system: MCF7 breast
MDA-MB-231 breast = system: MDA-MB-231 breast
MDA-MB-435 = system: MDA-MB-435
MDA-MB-468 breast = system: MDA-MB-468 breast
MOLT-4 leukemia = system: MOLT-4 leukemia
NCI-H226 lung = system: NCI-H226 lung
NCI-H23 lung = system: NCI-H23 lung
NCI-H460 lung = system: NCI-H460 lung
NCI-H522 lung = system: NCI-H522 lung
OVCAR-3 ovarian = system: OVCAR-3 ovarian
OVCAR-4 ovarian = system: OVCAR-4 ovarian
OVCAR-5 ovarian = system: OVCAR-5 ovarian
OVCAR-8 ovarian = system: OVCAR-8 ovarian
PC-3 prostate = system: PC-3 prostate
RPMI-8226 leukemia = system: RPMI-8226 leukemia
RXF 393 renal = system: RXF 393 renal
SF-268 CNS = system: SF-268 CNS
SF-295 CNS = system: SF-295 CNS
SF-539 CNS = system: SF-539 CNS
SK-MEL-2 melanoma = system: SK-MEL-2 melanoma
SK-MEL-28 melanoma = system: SK-MEL-28 melanoma
SK-MEL-5 melanoma = system: SK-MEL-5 melanoma
SK-OV-3 ovarian = system: SK-OV-3 ovarian
SN12C renal = system: SN12C renal
SNB-19 CNS = system: SNB-19 CNS
SNB-75 CNS = system: SNB-75 CNS
SR leukemia = system: SR leukemia
SW-620 colon = system: SW-620 colon
T-47D breast = system: T-47D breast
TK-10 renal = system: TK-10 renal
U251 CNS = system: U251 CNS
UACC-257 melanoma = system: UACC-257 melanoma
UACC-62 melanoma = system: UACC-62 melanoma
UO-31 renal = system: UO-31 renal

With `CCOc1ccc(/C=N/NC(=O)Cn2nc(Cc3ccccc3)c3onc(C)c3c2=O)cc1` the GI50 (786-0 renal) was 5.99 µM, the TGI (786-0 renal) was 17.6 µM and the GI50 (A498 renal) was 19.9 µM. For the same molecule, the TGI (A498 renal) was over 59.6 µM, the GI50 (A549 NSCLC) was over 100 µM and the TGI (A549 NSCLC) was over 100 µM. For the same molecule, the GI50 (ACHN renal) was 11.3 µM, the TGI (ACHN renal) was over 52.4 µM and the GI50 (BT-549 breast) was 13.5 µM. For the same molecule, the TGI (BT-549 breast) was over 24.8 µM, the GI50 (CAKI-1 renal) was 14 µM and the TGI (CAKI-1 renal) was over 95.8 µM. The GI50 (CCRF-CEM leukemia) was over 100 µM, the TGI (CCRF-CEM leukemia) was over 100 µM and the GI50 (COLO 205 colon) was over 100 µM. For the same molecule, the TGI (COLO 205 colon) was over 100 µM, the GI50 (DU-145 prostate) was over 100 µM and the TGI (DU-145 prostate) was over 100 µM. The GI50 (EKVX NSCLC) was over 100 µM, the TGI (EKVX NSCLC) was over 100 µM and the GI50 (HCC-2998 colon) was over 100 µM. It also gave a TGI (HCC-2998 colon) of over 100 µM, a GI50 (HCT-116 colon) of over 100 µM and a TGI (HCT-116 colon) of over 100 µM. It also gave a GI50 (HCT-15 colon) of over 100 µM, a TGI (HCT-15 colon) of over 100 µM and a GI50 (HL-60(TB) leukemia) of over 100 µM. For the same molecule, the TGI (HL-60(TB) leukemia) was over 100 µM, the GI50 (HOP-62 NSCLC) was 4.4 µM and the TGI (HOP-62 NSCLC) was 28.4 µM. It also gave a GI50 (HOP-92 NSCLC) of 5.71 µM, a TGI (HOP-92 NSCLC) of 21.7 µM and a GI50 (HS 578T breast) of 3.57 µM. For the same molecule, the TGI (HS 578T breast) was over 25.6 µM, the GI50 (HT29 colon) was over 100 µM and the TGI (HT29 colon) was over 100 µM. It also gave a GI50 (IGROV1 ovarian) of 47.4 µM, a TGI (IGROV1 ovarian) of over 100 µM and a GI50 (K-562 leukemia) of over 100 µM. For the same molecule, the TGI (K-562 leukemia) was over 100 µM, the GI50 (KM12 colon) was over 100 µM and the TGI (KM12 colon) was over 100 µM. The GI50 (LOX IMVI melanoma) was over 100 µM, the TGI (LOX IMVI melanoma) was over 100 µM and the GI50 (M14 melanoma) was over 21.6 µM. For the same molecule, the TGI (M14 melanoma) was over 100 µM, the GI50 (MALME-3M melanoma) was 12 µM and the TGI (MALME-3M melanoma) was over 100 µM. For the same molecule, the GI50 (MCF7 breast) was over 100 µM, the TGI (MCF7 breast) was over 100 µM and the GI50 (MDA-MB-231 breast) was 8.26 µM. It also gave a TGI (MDA-MB-231 breast) of over 37.6 µM, a GI50 (MDA-MB-435) of over 100 µM and a TGI (MDA-MB-435) of over 100 µM. It also gave a GI50 (MDA-MB-468 breast) of 9.09 µM, a TGI (MDA-MB-468 breast) of 44.6 µM and a GI50 (MOLT-4 leukemia) of over 100 µM. For the same molecule, the TGI (MOLT-4 leukemia) was over 100 µM, the GI50 (NCI-H226 lung) was 4.76 µM and the TGI (NCI-H226 lung) was over 24.7 µM. For the same molecule, the GI50 (NCI-H23 lung) was 30.4 µM, the TGI (NCI-H23 lung) was over 100 µM and the GI50 (NCI-H460 lung) was over 100 µM. For the same molecule, the TGI (NCI-H460 lung) was over 100 µM, the GI50 (NCI-H522 lung) was over 31.3 µM and the TGI (NCI-H522 lung) was over 87.2 µM. It also gave a GI50 (OVCAR-3 ovarian) of over 100 µM, a TGI (OVCAR-3 ovarian) of over 100 µM and a GI50 (OVCAR-4 ovarian) of 2.93 µM. For the same molecule, the TGI (OVCAR-4 ovarian) was over 100 µM, the GI50 (OVCAR-5 ovarian) was over 100 µM and the TGI (OVCAR-5 ovarian) was over 100 µM. For the same molecule, the GI50 (OVCAR-8 ovarian) was over 100 µM, the TGI (OVCAR-8 ovarian) was over 100 µM and the GI50 (PC-3 prostate) was over 100 µM. For the same molecule, the TGI (PC-3 prostate) was over 100 µM, the GI50 (RPMI-8226 leukemia) was over 100 µM and the TGI (RPMI-8226 leukemia) was over 100 µM. The GI50 (RXF 393 renal) was 5.82 µM, the TGI (RXF 393 renal) was 22.5 µM and the GI50 (SF-268 CNS) was 15.7 µM. The TGI (SF-268 CNS) was over 100 µM, the GI50 (SF-295 CNS) was 14.7 µM and the TGI (SF-295 CNS) was over 61 µM. For the same molecule, the GI50 (SF-539 CNS) was 19.5 µM, the TGI (SF-539 CNS) was over 64.5 µM and the GI50 (SK-MEL-2 melanoma) was 15.5 µM. For the same molecule, the TGI (SK-MEL-2 melanoma) was 33.1 µM, the GI50 (SK-MEL-28 melanoma) was over 100 µM and the TGI (SK-MEL-28 melanoma) was over 100 µM. For the same molecule, the GI50 (SK-MEL-5 melanoma) was over 100 µM, the TGI (SK-MEL-5 melanoma) was over 100 µM and the GI50 (SK-OV-3 ovarian) was 13.8 µM. For the same molecule, the TGI (SK-OV-3 ovarian) was over 66.8 µM, the GI50 (SN12C renal) was over 100 µM and the TGI (SN12C renal) was over 100 µM. It also gave a GI50 (SNB-19 CNS) of 16.3 µM, a TGI (SNB-19 CNS) of over 52.4 µM and a GI50 (SNB-75 CNS) of 2.61 µM. It also gave a TGI (SNB-75 CNS) of 13.8 µM, a GI50 (SR leukemia) of over 100 µM and a TGI (SR leukemia) of over 100 µM. The GI50 (SW-620 colon) was over 100 µM, the TGI (SW-620 colon) was over 100 µM and the GI50 (T-47D breast) was over 20.4 µM. For the same molecule, the TGI (T-47D breast) was over 100 µM, the GI50 (TK-10 renal) was over 40.2 µM and the TGI (TK-10 renal) was over 66.2 µM. For the same molecule, the GI50 (U251 CNS) was 9.01 µM, the TGI (U251 CNS) was over 100 µM and the GI50 (UACC-257 melanoma) was over 100 µM. The TGI (UACC-257 melanoma) was over 100 µM, the GI50 (UACC-62 melanoma) was over 19.9 µM and the TGI (UACC-62 melanoma) was over 100 µM. For the same molecule, the GI50 (UO-31 renal) was over 100 µM and the TGI (UO-31 renal) was over 100 µM.

Source: PubChem BioAssay (NCI)
